Data from publication PMC6479946 (Molecules, 2019).
Marks after values point to notes of the source that are not given here.

Experiment: Pharmacokinetic study in rats after oral HAR and MEM alone and in combination (plasma, UPLC-MS/MS, non-compartmental)
Conditions: rat plasma, n = 8, mean ± SD
Description: The analytes were separated on an ACQUITY UPLC BEH C18 column (2.1 mm × 50 mm, 1.7 μm, Waters, Milford, USA). […] The flow rate was 0.3 mL/min. The column and sample-tray temperature were kept at 40 °C and 4 °C, respectively. The injection volume was 5.0 μL using a partial loop with needle over fill mode.
The compound dependent parameters used for analysis were summarized in Supplementary materials Table S1.
A rapid and convenient precipitation method was used to prepare the plasma samples. A 100 μL aliquot of plasma sample was spiked with 100 μL of IS solution and 300 μL of methanol in a 1.5 mL centrifuge tube; subsequently, the mixtures were vortex-mixed for 30.0 s and then centrifuged at 1.5 × 10^4× g for 10 min at 4 °C. A 100 μL aliquot of supernatant was combined with 25.0 μL of 0.1% formic acid water in a clean centrifuge tube and then vortex-mixed for 30 s. A 5.0 μL aliquot of mixture was injected into the UPLC-MS/MS system for analysis.
Fifty-six pathogen-free male adult rats were randomly divided into seven groups with eight rats in each group for pharmacokinetic study. […] One group was intragastrically administered with MEM hydrochloride 5.0 mg/kg dissolved in ultrapure water, namely, MEM group. […] The blood samples were immediately centrifuged at 4.0 × 10^3× g at […] for 10 min, and 100 μL of the supernatant plasma was transferred into another new 1.5 mL centrifuge tube and stored at −20 °C until UPLC-MS/MS analysis.
All standard curves and quantitative data were processed by Agilent Mass Hunter Quantitative Analysis Workstation Software. […] All the pharmacokinetic parameters were processed using the non-compartmental pharmacokinetics data analysis software program PK solutions 2.0^TM (Summit Research Services, USA). […] The AUC(0-t) was obtained by the linear/logarithmic trapezoidal rule, and the area under the plasma concentration versus time curve from zero to infinity (AUC(0-∞)) was calculated by means of the trapezoidal rule with extrapolation to infinity with a terminal elimination rate constant. The Pearson correlation coefficient analysis was processed by IBM SPSS Statistics Version 21. A statistical analysis was performed using analysis of variance with α = 0.05 as the minimal level of significance.

[1] = HOL as metabolite after oral HAR 40.0 mg/kg + MEM 5.0 mg/kg (HAR-M + MEM)
[2] = HOL as metabolite after oral HAR 40.0 mg/kg alone (HAR-M)
[3] = HOL as metabolite after oral HAR 80.0 mg/kg + MEM 5.0 mg/kg (HAR-H + MEM)
[4] = HOL as metabolite after oral HAR 80.0 mg/kg alone (HAR-H)

Question: For harmol [HOL], which “AUC(0-t) of HOL” value [1] is on record?
Answer: Its value is 35.5 ± 15.3 ng·h/mL.

Question: What about the “AUC(0-∞) of HOL” value [1] of the same substance?
Answer: Its value is 43.1 ± 21.9 ng·h/mL.

Question: What about the “Cmax of HOL” value [1] of the same substance?
Answer: The value was 18.0 ± 5.95 ng/mL.

Question: And the “Ka of HOL” value [1]?
Answer: The value was 1.98 ± 1.72 h⁻¹.

Question: And the “Ke of HOL” value [1]?
Answer: Its value is 0.312 ± 0.271 h⁻¹.

Question: What about the “MRT of HOL” value [1] of the same substance?
Answer: The value was 5.52 ± 2.55 h.

Question: And the “T1/2a of HOL” value [1]?
Answer: The value was 2.78 ± 4.59 h.

Question: And the “T1/2e of HOL” value [1]?
Answer: Its value is 3.53 ± 2.19 h.

Question: And the “T1/2d of HOL” value [1]?
Answer: The value was 2.05 ± 1.61 h.

Question: What about the “Tmax of HOL” value [1] of the same substance?
Answer: Its value is 0.229 ± 0.0589 h.

Question: And the “AUC(0-t) of HOL” value [2]?
Answer: The value was 27.1 ± 10.8 ng·h/mL.

Question: What about the “AUC(0-∞) of HOL” value [2] of the same substance?
Answer: The value was 29.6 ± 11.3 ng·h/mL.

Question: What about the “Cmax of HOL” value [2] of the same substance?
Answer: The value was 10.4 ± 2.13 ng/mL.

Question: And the “Ka of HOL” value [2]?
Answer: The value was 0.808 ± 1.28 h⁻¹.

Question: What about the “Ke of HOL” value [2] of the same substance?
Answer: The value was 0.400 ± 0.133 h⁻¹.

Question: And the “MRT of HOL” value [2]?
Answer: The value was 4.44 ± 1.78 h.

Question: What about the “T1/2a of HOL” value [2] of the same substance?
Answer: The value was 2.22 ± 1.67 h.

Question: And the “T1/2e of HOL” value [2]?
Answer: The value was 1.94 ± 0.712 h.

Question: What about the “T1/2d of HOL” value [2] of the same substance?
Answer: Its value is 1.89 ± 1.07 h.

Question: What about the “Tmax of HOL” value [2] of the same substance?
Answer: Its value is 0.198 ± 0.324 h.

Question: And the “AUC(0-t) of HOL” value [3]?
Answer: The value was 158 ± 59.9 ^bbb ng*h/mL.

Question: What about the “AUC(0-∞) of HOL” value [3] of the same substance?
Answer: The value was 327 ± 140 ^bbb ng*h/mL.

Question: What about the “Cmax of HOL” value [3] of the same substance?
Answer: The value was 40.4 ± 10.9 ^bbb ng/mL.

Question: What about the “Ka of HOL” value [3] of the same substance?
Answer: Its value is 0.864 ± 1.00 h⁻¹.

Question: And the “Ke of HOL” value [3]?
Answer: Its value is 0.0899 ± 0.0912 ^b /h.

Question: What about the “MRT of HOL” value [3] of the same substance?
Answer: The value was 23.5 ± 19.3 ^b h.

Question: What about the “T1/2a of HOL” value [3] of the same substance?
Answer: Its value is 2.15 ± 2.05 h.

Question: What about the “T1/2e of HOL” value [3] of the same substance?
Answer: The value was 17.2 ± 14.7 ^b h.

Question: And the “T1/2d of HOL” value [3]?
Answer: Its value is 3.48 ± 4.35 h.

Question: What about the “Tmax of HOL” value [3] of the same substance?
Answer: Its value is 2.39 ± 3.52 h.

Question: And the “AUC(0-t) of HOL” value [4]?
Answer: Its value is 57.8 ± 19.3 ^aaa ng*h/mL.

Question: And the “AUC(0-∞) of HOL” value [4]?
Answer: Its value is 69.7 ± 23.1 ^aaa ng*h/mL.

Question: What about the “Cmax of HOL” value [4] of the same substance?
Answer: Its value is 32.4 ± 16.5 ^aa ng/mL.

Question: What about the “Ka of HOL” value [4] of the same substance?
Answer: Its value is 1.17 ± 1.96 h⁻¹.

Question: And the “Ke of HOL” value [4]?
Answer: Its value is 0.226 ± 0.0896 ^aa /h.

Question: And the “MRT of HOL” value [4]?
Answer: The value was 6.04 ± 2.12 h.

Question: What about the “T1/2a of HOL” value [4] of the same substance?
Answer: The value was 2.02 ± 1.52 h.

Question: And the “T1/2e of HOL” value [4]?
Answer: Its value is 3.57 ± 1.50 ^a h.

Question: And the “T1/2d of HOL” value [4]?
Answer: Its value is 2.02 ± 1.72 h.

Question: And the “Tmax of HOL” value [4]?
Answer: Its value is 0.271 ± 0.159 h.
